# Legend:
# Experiment in all cases: KINOMEscan competition binding
# Settings in all cases: compound 1.0 µM
# GAK (human) = GAK (human) (UniProt O14976)
# MAP2K3 (human) = MAP2K3 (human) (UniProt P46734)
# ULK3 (human) = ULK3 (human) (UniProt Q6PHR2)
# MAPK9 (human) = MAPK9 (human) (UniProt P45984)
# MAPK14 (human) = MAPK14 (human) (UniProt Q16539)
# [1] = system: RET (human), P07949 [V804L]
# TESK1 (human) = TESK1 (human) (UniProt Q15569)
# AKT2 (human) = AKT2 (human) (UniProt P31751)
# SRC (human) = SRC (human) (UniProt P12931)
# DMPK (human) = DMPK (human) (UniProt Q09013)
# PRPF4B (human) = PRPF4B (human) (UniProt Q13523)
# EPHA6 (human) = EPHA6 (human) (UniProt Q9UF33)
# GRK4 (human) = GRK4 (human) (UniProt P32298)
# CDC2L2 (human) = CDC2L2 (human) (UniProt Q9UQ88)
# RIPK2 (human) = RIPK2 (human) (UniProt O43353)
# YES1 (human) = YES1 (human) (UniProt P07947)
# IKBKB (human) = IKBKB (human) (UniProt O14920)
# MAP3K6 (human) = MAP3K6 (human) (UniProt O95382)
# SBK1 (human) = SBK1 (human) (UniProt Q52WX2)
# STK32C (human) = STK32C (human) (UniProt Q86UX6)
# PTK6 (human) = PTK6 (human) (UniProt Q13882)
# CHEK2 (human) = CHEK2 (human) (UniProt O96017)
# EGFR (human) = EGFR (human) (UniProt P00533)
# MAPK8 (human) = MAPK8 (human) (UniProt P45983)
# ROS1 (human) = ROS1 (human) (UniProt P08922)
# RPS6KA4 KD1 (human) = RPS6KA4 KD1 (human) (UniProt O75676)
# CSNK1D (human) = CSNK1D (human) (UniProt P48730)
# Sequence of CSNK1D (human) (P48730 whole entry, looked up): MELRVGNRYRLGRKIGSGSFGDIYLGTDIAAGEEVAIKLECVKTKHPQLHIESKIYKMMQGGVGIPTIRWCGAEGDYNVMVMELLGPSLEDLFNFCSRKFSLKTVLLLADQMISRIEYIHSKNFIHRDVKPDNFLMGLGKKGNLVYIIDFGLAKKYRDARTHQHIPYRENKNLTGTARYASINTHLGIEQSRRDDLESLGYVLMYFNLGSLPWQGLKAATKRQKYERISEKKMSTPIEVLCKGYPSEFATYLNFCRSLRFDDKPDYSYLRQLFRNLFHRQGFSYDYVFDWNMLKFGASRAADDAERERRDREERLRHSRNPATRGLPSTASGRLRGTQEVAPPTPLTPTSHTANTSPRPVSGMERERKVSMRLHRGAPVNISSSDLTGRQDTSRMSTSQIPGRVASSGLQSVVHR
# FLT3 (human) = FLT3 (human) (UniProt P36888)
# KIT (human) = KIT (human) (UniProt P10721)
# Sequence of KIT (human) (P10721 whole entry, looked up): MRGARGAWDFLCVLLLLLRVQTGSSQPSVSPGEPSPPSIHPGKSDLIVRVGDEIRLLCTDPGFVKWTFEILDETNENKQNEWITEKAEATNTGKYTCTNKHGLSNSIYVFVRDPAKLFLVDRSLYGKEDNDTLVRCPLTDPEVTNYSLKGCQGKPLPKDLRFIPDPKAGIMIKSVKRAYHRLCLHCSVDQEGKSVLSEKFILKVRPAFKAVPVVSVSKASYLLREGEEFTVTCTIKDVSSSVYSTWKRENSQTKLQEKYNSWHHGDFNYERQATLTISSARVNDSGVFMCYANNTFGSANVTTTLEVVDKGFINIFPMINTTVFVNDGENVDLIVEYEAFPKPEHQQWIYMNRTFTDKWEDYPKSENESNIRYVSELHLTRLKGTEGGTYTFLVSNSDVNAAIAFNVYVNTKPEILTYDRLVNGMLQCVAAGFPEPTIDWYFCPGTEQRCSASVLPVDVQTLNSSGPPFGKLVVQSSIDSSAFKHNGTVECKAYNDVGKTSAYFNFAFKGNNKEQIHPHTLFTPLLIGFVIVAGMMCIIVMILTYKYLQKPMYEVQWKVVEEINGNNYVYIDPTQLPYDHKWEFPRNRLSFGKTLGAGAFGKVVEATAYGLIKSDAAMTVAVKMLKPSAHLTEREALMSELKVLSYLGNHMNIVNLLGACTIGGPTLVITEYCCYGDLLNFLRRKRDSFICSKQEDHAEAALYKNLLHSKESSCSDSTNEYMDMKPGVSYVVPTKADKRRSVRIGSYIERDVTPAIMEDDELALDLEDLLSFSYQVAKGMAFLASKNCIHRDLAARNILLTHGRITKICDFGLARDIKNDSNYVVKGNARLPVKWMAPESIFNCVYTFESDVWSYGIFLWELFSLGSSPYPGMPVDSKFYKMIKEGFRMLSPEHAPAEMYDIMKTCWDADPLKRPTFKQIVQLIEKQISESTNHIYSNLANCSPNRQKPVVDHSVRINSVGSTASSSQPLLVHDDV
# RPS6KA3 KD1 (human) = RPS6KA3 KD1 (human) (UniProt P51812)
# ABL2 (human) = ABL2 (human) (UniProt P42684)
# Sequence of ABL2 (human) (P42684 whole entry, looked up): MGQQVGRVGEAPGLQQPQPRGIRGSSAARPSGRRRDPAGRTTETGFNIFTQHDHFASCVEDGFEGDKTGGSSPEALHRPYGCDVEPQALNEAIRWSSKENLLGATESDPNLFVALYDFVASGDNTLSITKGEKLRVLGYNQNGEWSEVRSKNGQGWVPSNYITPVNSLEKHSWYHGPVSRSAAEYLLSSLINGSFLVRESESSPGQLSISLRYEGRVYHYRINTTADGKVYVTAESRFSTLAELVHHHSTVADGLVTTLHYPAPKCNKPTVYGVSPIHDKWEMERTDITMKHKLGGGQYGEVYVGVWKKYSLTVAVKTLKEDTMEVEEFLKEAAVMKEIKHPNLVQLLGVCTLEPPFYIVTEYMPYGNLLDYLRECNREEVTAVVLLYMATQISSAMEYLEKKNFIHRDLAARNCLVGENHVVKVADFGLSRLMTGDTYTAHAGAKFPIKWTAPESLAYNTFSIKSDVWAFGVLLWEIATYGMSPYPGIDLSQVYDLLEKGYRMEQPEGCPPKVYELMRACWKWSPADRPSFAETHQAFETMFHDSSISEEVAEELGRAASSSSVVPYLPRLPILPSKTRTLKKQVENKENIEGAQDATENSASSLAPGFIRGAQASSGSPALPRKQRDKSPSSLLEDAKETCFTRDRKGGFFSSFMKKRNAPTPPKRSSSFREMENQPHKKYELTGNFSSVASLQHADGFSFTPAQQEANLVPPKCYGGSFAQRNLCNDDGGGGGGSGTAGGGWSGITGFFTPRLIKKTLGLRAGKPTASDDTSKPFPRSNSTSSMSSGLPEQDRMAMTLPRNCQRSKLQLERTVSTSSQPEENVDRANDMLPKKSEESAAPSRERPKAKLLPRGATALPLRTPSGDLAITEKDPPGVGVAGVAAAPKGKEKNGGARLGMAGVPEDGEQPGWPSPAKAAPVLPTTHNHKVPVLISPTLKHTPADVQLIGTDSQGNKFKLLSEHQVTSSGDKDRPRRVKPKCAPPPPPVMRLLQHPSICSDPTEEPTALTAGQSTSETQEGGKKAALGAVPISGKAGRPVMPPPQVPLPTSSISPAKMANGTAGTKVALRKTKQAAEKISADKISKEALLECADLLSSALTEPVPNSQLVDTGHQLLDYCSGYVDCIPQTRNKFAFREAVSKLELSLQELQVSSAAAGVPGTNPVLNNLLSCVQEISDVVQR
# DCLK3 (human) = DCLK3 (human) (UniProt Q9C098)
# PTK2B (human) = PTK2B (human) (UniProt Q14289)
# AKT3 (human) = AKT3 (human) (UniProt Q9Y243)
# ULK1 (human) = ULK1 (human) (UniProt O75385)
# TNIK (human) = TNIK (human) (UniProt Q9UKE5)
# [2] = system: MET (human), P08581 [Y1235D]
# DDR1 (human) = DDR1 (human) (UniProt Q08345)
# MAP2K1 (human) = MAP2K1 (human) (UniProt Q02750)
# Sequence of MAP2K1 (human) (Q02750 whole entry, looked up): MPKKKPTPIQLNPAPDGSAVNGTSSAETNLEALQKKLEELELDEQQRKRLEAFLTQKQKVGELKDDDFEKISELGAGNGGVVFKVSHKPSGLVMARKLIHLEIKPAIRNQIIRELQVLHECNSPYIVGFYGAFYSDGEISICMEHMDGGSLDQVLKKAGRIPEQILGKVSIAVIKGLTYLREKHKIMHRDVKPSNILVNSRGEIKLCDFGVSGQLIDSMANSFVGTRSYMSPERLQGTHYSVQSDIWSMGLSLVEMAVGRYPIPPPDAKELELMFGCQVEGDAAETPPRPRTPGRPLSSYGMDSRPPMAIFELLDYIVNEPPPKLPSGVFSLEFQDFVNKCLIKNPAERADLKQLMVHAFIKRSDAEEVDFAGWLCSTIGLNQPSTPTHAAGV
# RPS6KA5 KD2 (human) = RPS6KA5 KD2 (human) (UniProt O75582)
# Sequence of GAK (human) (O14976 whole entry, looked up): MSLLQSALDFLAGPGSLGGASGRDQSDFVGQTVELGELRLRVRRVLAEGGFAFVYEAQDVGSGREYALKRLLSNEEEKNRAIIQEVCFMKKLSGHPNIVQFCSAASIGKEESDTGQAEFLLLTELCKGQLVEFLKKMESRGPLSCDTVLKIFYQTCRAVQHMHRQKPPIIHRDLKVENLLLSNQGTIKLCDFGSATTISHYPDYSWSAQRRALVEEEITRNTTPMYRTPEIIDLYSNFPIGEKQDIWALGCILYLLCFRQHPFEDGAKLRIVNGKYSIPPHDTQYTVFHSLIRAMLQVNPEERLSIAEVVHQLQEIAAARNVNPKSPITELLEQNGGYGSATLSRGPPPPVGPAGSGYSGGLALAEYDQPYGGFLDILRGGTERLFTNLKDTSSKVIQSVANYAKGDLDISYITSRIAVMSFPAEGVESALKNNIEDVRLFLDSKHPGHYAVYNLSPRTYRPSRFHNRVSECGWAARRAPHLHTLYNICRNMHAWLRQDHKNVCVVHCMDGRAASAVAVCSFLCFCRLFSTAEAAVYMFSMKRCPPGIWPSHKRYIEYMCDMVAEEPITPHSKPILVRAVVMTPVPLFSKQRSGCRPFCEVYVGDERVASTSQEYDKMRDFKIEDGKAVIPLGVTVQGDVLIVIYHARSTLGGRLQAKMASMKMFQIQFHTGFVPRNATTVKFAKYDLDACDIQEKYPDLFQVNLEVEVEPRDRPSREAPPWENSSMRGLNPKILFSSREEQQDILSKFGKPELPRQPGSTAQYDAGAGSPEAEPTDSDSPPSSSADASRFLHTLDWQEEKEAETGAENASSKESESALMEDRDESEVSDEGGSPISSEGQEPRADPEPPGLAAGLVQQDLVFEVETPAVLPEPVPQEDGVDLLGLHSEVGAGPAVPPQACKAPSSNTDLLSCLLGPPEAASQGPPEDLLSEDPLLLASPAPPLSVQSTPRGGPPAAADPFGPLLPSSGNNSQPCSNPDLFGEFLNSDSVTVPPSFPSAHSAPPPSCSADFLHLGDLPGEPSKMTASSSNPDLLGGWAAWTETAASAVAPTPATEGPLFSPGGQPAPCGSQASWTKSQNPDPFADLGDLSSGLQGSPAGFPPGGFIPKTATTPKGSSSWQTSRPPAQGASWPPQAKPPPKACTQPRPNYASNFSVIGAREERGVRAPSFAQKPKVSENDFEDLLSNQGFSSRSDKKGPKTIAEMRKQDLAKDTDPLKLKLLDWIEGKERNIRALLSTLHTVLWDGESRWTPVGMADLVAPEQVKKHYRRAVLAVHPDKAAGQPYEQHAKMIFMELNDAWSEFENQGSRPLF
# Sequence of TESK1 (human) (Q15569 whole entry, looked up): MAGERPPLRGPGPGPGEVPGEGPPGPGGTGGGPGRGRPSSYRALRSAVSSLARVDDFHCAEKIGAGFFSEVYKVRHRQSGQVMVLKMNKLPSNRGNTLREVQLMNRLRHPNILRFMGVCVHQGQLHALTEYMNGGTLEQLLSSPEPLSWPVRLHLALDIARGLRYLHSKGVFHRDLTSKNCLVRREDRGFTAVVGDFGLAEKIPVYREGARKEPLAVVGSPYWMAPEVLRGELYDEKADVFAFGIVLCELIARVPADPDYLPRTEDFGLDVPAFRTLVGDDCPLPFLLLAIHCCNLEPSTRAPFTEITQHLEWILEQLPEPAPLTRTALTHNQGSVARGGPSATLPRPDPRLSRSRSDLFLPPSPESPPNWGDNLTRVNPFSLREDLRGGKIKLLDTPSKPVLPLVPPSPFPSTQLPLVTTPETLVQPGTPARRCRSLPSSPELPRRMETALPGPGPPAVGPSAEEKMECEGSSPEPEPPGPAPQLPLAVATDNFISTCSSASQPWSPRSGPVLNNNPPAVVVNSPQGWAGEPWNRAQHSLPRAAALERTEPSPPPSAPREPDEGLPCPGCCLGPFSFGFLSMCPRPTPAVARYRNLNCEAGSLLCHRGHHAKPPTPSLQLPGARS
compound,measurement,setting,value
Nc1cc(C(F)(F)F)c(-c2cc(N3CCOCC3)nc(N3CCOCC3)n2)cn1,inhibition of binding,GAK (human),6%
same,inhibition of binding,MAP2K3 (human),0%
same,inhibition of binding,ULK3 (human),17%
same,inhibition of binding,MAPK9 (human),0%
same,inhibition of binding,MAPK14 (human),0%
same,inhibition of binding,[1],12%
same,inhibition of binding,TESK1 (human),0%
same,inhibition of binding,AKT2 (human),0%
same,inhibition of binding,SRC (human),6%
same,inhibition of binding,DMPK (human),0%
same,inhibition of binding,PRPF4B (human),4%
same,inhibition of binding,EPHA6 (human),3%
same,inhibition of binding,GRK4 (human),0%
same,inhibition of binding,CDC2L2 (human),19%
same,inhibition of binding,RIPK2 (human),0%
same,inhibition of binding,YES1 (human),0%
same,inhibition of binding,IKBKB (human),0%
same,inhibition of binding,MAP3K6 (human),0%
same,inhibition of binding,SBK1 (human),17%
same,inhibition of binding,STK32C (human),0%
same,inhibition of binding,PTK6 (human),0%
same,inhibition of binding,CHEK2 (human),0%
same,inhibition of binding,EGFR (human),10%
same,inhibition of binding,MAPK8 (human),0%
same,inhibition of binding,ROS1 (human),0%
same,inhibition of binding,RPS6KA4 KD1 (human),4%
same,inhibition of binding,CSNK1D (human),27%
same,inhibition of binding,FLT3 (human),8%
same,inhibition of binding,KIT (human),0%
same,inhibition of binding,RPS6KA3 KD1 (human),0%
same,inhibition of binding,ABL2 (human),0%
same,inhibition of binding,DCLK3 (human),51%
same,inhibition of binding,PTK2B (human),0%
same,inhibition of binding,AKT3 (human),0%
same,inhibition of binding,ULK1 (human),0%
same,inhibition of binding,TNIK (human),1%
same,inhibition of binding,[2],0%
same,inhibition of binding,DDR1 (human),7%
same,inhibition of binding,MAP2K1 (human),0%
same,inhibition of binding,RPS6KA5 KD2 (human),50%

# — the kinase profiling compilation of Christmann-Franck et al. (2016)
